Data: patent publication US7074765B2, “Synthetic peptide analogs of Arg-Pro-Pro-Gly-Phe as selective inhibitors of thrombin and thrombin activation of protease activated receptors 1 and 4” (The Regents of the University of Michigan, priority 2003, dated 2006)

What was measured:
[1] = test system: platelets in platelet-rich plasma; assay: γ-thrombin-induced platelet aggregation in platelet-rich plasma; assay type: cell-based, human
Experimental: Fresh whole blood was collected and mixed with 0.013 M sodium citrate and platelet-rich plasma was prepared according to the method of Meloni et al., J. Biol. Chem. 266, 6786 (1991). Platelet-rich plasma with a normalized platelet count between 2–2.5×10^8 platelets/ml was added to a cuvette of an aggregometer (Chronlog Corp., Havertown, Pa.), standardized using the protocol of Meloni et al., supra. Peptides to be examined were added to the cuvette and the mixture stabilized for a few moments. Once the baseline was stabilized, γ-thrombin (10–70 nM) (Haematologic Technologies, Essex Junction, Vt.) was added to determine the minimal concentration of the agonist necessary to achieve full platelet aggregation. All investigations with peptides were performed using threshold concentrations of γ-thrombin. Aggregation was allowed to proceed for 5 minutes before stopping. When ADP-induced platelet aggregation studies were performed, 1–5 μM ADP (Sigma) was added to the cuvette containing platelet-rich plasma.

[2] = test system: normal human lung fibroblasts (NHLF); assay: α-thrombin-induced calcium mobilization in fibroblasts; assay type: cell-based
Experimental: The second assay developed to assess peptides from the combinatorial libraries uses inhibition of α-thrombin-induced calcium mobilization in fibroblasts. Normal human lung fibroblasts (NHLF) were purchased from Clonetics, San Diego, Calif., an affiliate of Bio-Wittaker, Walkersville, Md. The cytoplasmic free Ca^2+ concentration ([Ca^2+]i) was measured using the fluorescent Ca^2+ indicator fura-2 (Molecular Probes, Inc., Eugene, Oreg.). Suspension of fibroblasts in Hepes-Tyrode's buffer were loaded with fura-2 by incubation at 37° C. with 2 μM fura-2/acetoxymethyl ester for 45 minutes according to the method of Rasmussen et al., J. Biol. Chem. 268, 14322 (1993). The labeled fibroblasts were separated from excess probe by washing by centrifugation at 1000 rpm (180×g). Aliquots of the labeled fibroblasts were transferred into a quartz cuvette with a magnetic stirrer, which was then placed in a thermostatically controlled chamber at 37° C. in a fluorescence spectrophotometer (Perkin-Elmer LS50B spectrofluorometer, Chicago, Ill.). Reagents, test peptide, and α-thrombin (0.25–2 nM), were sequentially added directly to the cuvette. The excitation wavelengths varied between 340 and 380 nm. Fluorescence was measured by recording emitted light at 510 nm as reported by Fisher et al., Mol Pharm. 35, 195 (1989). The minimum emission was determined on a solubilized fibroblast sample in the presence of 10 mM EDTA; maximum emission was determined on the same sample with 10 mM Ca^2+ added. The intrafibroblast free Ca^2+ concentration was calculated by the method of Grykiewicz et al., J. Biol. Chem. 260, 3440 (1985). […] The KD for fura-2 was assumed to be 224 nM. Rmax and Rmin are the maximum and minimum fluorescence ratios measured at the end of the experiment, respectively; Sf2 and Sb2 are the fluorescence values at 380 nm in the absence and presence of saturating [Ca^2+], respectively. The reaction was monitored for 3–5 minutes.

[3] = target: T1, thrombocytin cleavage of recombinant human PAR1 extracellular domain (Homo sapiens, UniProt P25116); assay: Inhibition of thrombocytin-induced cleavage of rPAR1EC; assay type: biochemical; settings: 16.7 nM thrombocytin, 45 min, 37° C.; below concentration that blocks the enzyme's proteolytic activity
T1 construct: A portion of the extracellular domain of human PAR1 (Ala^26-Ser^99) (rPAR1EC) was expressed in Escherichia coli; His10-DDDDK (pET19b) (N); made in house; host or cells: E. coli BL21(DE3), pET19b (rPAR1EC)
T1 sequence (P25116 26-99): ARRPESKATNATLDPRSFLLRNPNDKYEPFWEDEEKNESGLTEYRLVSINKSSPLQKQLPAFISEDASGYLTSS
Experimental: Thrombocytin is a snake venom enzyme that activates platelets by cleaving PAR1 at the thrombin cleavage site (Santos et al., FEBS Letters. 18, 3570–3577 (2000)). […] The ability of MAP4-rOicPGF to block thrombocytin cleavage of rPAR1EC was performed as follows. One μg of rPAR1EC in 0.01 mM Tris-HCL, 0.2 M NaCl, pH 8.0 was incubated at 37° C. for 15 min or 45 min with 1 nM of α-thrombin or 0.5 μg/mL thrombocytin (16.7 nM), respectively, in the absence or presence of 0.025 to 1 mM MAP4-rOicPGF. The reaction mixture was separated on SDS-PAGE and stained with Coomassie Brilliant Blue. The cleaved gel images were scanned using the software Scion Image, ScionCorp, Frederick, Md.

PC3 cells = assay: α-thrombin-induced intracellular calcium mobilization in PC3 cells; assay type: cell-based; settings: 2 nM α-thrombin
Experimental: FIG. 13 examines the influence of MAP4-TH146 on thrombin-induced calcium mobilization in two prostate cancer cell lines that functionally express PAR 1. In Panel A, the influence of MAP4-TH146 on 2 nM α-thrombin-induced intracellular calcium mobilization in VCaP cells. Calcium flux is abolished by […]. At 6.25 μM MAP4-TH146, there is full recovery of thrombin-induced calcium flux. In Panel B, the influence of MAP4-TH146 on 2 nM α-thrombin-induced intracellular calcium mobilization in PC3 cells. Calcium flux is abolished by 200 μM MAP4-TH146. At 1.56 μM MAP4-TH146, calcium flux recovers.

PC-3 cells = assay: Thrombin-induced motility of prostate cancer cells (Boyden chamber); assay type: cell-based; settings: 100 μM; 2 nM α-thrombin
Experimental: Motility assays are performed with a modified Boyden chamber (tissue culture-treated, 6.5 mm diameter, 10 μm thickness, 8 μm pores). In the motility assays, 2.5×10^4 cells are plated in the top chamber of non-coated polyethylene teraphthalate (PET) membranes (24-well insert, pore size […]; Becton Dickinson). […] RPMI 10% fetal bovine serum is used as a chemoattractant in the lower chamber. […] The cells that transverse the membranes are stained with Dip-Quick (Jorgensen Laboratories, Loveland, Colo.). Cells in five random fields of view at 200× are counted and expressed as the average number of cells/field of view. […]

## β-Ala-Lys-2Lys-4(D-Arg-Oic-Pro-Gly-Phe) [MAP4-rOicPGF]
[1]; 40 nM γ-thrombin
  concentration that abolished γ-thrombin-induced platelet aggregation: ≥ 0.0125 mM
[1]; 0.006 mM peptide, 40 nM γ-thrombin
  effect on γ-thrombin-induced platelet aggregation: returned to pretreatment levels
[1]; 0.05 mM peptide, 40 nM γ-thrombin
  effect on γ-thrombin-induced platelet aggregation: completely abolished
[1]; minimal concentration that blocked γ-thrombin-induced platelet aggregation in platelet-rich plasma
  Concentration of Peptide [mM] That Gives 100% Inhibition: 0.019 mM
[2]; 0.25 nM α-thrombin
  concentrations that blocked α-thrombin-induced Ca^2+ mobilization in fibroblasts: ≥ 3.1 µM
[2]; 0.2 mM peptide, 2 nM alpha thrombin
  inhibition of calcium mobilization: 98%
[2]; 0.0016 (unit not given) peptide, 2 nM alpha thrombin
  effect on alpha thrombin-induced calcium mobilization: full recovery
[3]
  concentration that blocks thrombocytin cleavage of rPAR1EC: 0.2 mM
PC3 cells; 1.56 μM peptide
  effect on thrombin-induced calcium flux: recovers
PC3 cells; 200 μM peptide
  effect on thrombin-induced calcium flux: abolished
PC-3 cells
  effect on thrombin-induced PC-3 cell motility: block
